Data from patent publication US20030229132A1, “Small molecule modulators of apoptosis” (priority 2002, published 2003).

Key:
Jurkat cells = assay: Cell viability by MTT test, Jurkat; assay type: cell-based, human
Procedure: (§1) Samples were then probed by immunoblot for (A) caspase-3 activation or (B) cleavage of PARP. (C) DNA fragmentation analysis. […] The DNA was isolated by phenol/chloroform extraction, separated on a 2% agarose gel and visualized by ethidium bromide staining. Cell viability assay.
One of the hallmarks of apoptosis is the fragmentation of chromosomal DNA into discrete, nucleosomal sized bands. […] We then examined the effects of the compounds on cell viability. Jurkat cells were incubated at different concentrations of compounds for 22 hr and then assayed by MTT test.
(§2) Normal cell lines include peripheral blood lymphocytes (PBL) isolated from donated human blood, non-transformed mammary fibroblasts (MCF-10A), human mammary epithelial cells (HMEC), human umbilical vein endothelial cells (HUVEC), and human prostate epithelial cells (PREC). Transformed cell lines include cell lines from leukemia, breast, lung, ovarian, and epidermal cancers (Table 1).

[1] = system: peripheral blood lymphocytes (PBL); assay: Cell viability, PBL; assay type: cell-based, human; settings: normal cell
Text: as §1, §2

[2] = system: human umbilical vein endothelial cells (HUVEC); assay: Cell viability, HUVEC; assay type: cell-based; settings: normal cell
Text: as §2

CCRF-CEM = assay: Cell viability, CCRF-CEM; assay type: cell-based, human; settings: leukemia
Text: as §1, §2

BT-549 = assay: Cell viability, BT-549; assay type: cell-based, human; settings: BT-549, breast
Text: as §2

SK-OV-3 = assay: Cell viability, SK-OV-3; assay type: cell-based
Text: as §2

[3] = system: cell lines from the NCI cancer panel; assay: NCI cancer panel, cell growth by sulforhodamine B staining; assay type: cell-based
Procedure: Cells were exposed to serial dilutions of compound 2 continuously for 6 days, and cell growth relative to controls was determined by staining with sulforhodamine B. Some cell lines were excluded for clarity. (A) Dose-response plots for leukemia, melanoma, renal cancer and CNS cancer. (B) Dose-response plots for lung, breast and colon cancers.
Compounds 2-5 additionally were submitted to the National Cancer Institute for screening in the cancer panel. […] Compound 2 exerted a cytostatic effect on the majority of cell lines tested, inhibiting cell growth by 50-100% at 10 μM in 40 out of 48 cell lines tested. In addition, compound 2 exerted a cytotoxic effect, reducing the cell numbers by 10-50% in four cell lines and by 50-100% in eight cell lines from the initial levels when tested at 10 μM. […] Representative dose-response plots for lung, breast and colon cancer cell lines are also shown (FIG. 4B). Results for ovarian and prostate cancer were similar.

[4] = system: Jurkat cells transfected with Apaf-1 siRNA; assay: Viability of Jurkat cells transfected with Apaf-1 siRNA (MTT test); assay type: cell-based, human; settings: 20 nM Apaf-1 siRNA 48 hr, then 24 hr incubation
Procedure: (§3) (A) Jurkat cells were transfected with 20 nM Apaf-1 siRNA for 48 hr and half the cells were lysed and probed with antibodies to Apaf-1, caspase-9, and caspase-3. The other half of the cells was incubated with varying concentrations of (B), compound 2 or (C), Fas ligand for 24 hr and assayed for viability by MTT test. (D) SK-OV-3 cells were transiently transfected with Apaf-1 or vector control for 24 hr and then incubated with vary concentrations of compound 2 and assayed for viability. (E) Cyto c was titrated into SK-OV-3 cell lysate in the presence of 300 μM dATP, with or without 150 nM purified Apaf-1 and 20 μM compound 2 as indicated.
In order to verify that compound 2 targets the apoptosome as a function of its cytotoxic activity, small interfering RNA (siRNA) was used to silence the expression of Apaf-1 in Jurkat cells. Sense and anti-sense oligonucleotides corresponding to nucleotides 978-998 of Apaf-1 (([…]) as reported by Lassus et al. Science 297, 1352-4. (2002)), were purchased from Dharmacon. Transfection of siRNA into Jurkat cells was accomplished using GeneSilencer (Gene Therapy Systems) according to manufacturer's instructions. There was a significant decrease in the level of expression of Apaf-1 48 hr after transfection of an Apaf-1 specific siRNA, without affecting the expression of caspases in the pathway (FIG. 5A).

[5] = system: Apaf-1 transfected SK-OV-3 cells; assay: Viability of SK-OV-3 cells transiently transfected with Apaf-1; assay type: cell-based; settings: several independent experiments
Procedure: as §3
(§4) If silencing Apaf-1 in Jurkat cells make them resistant to compound 2 induced apoptosis, then it would be expected that ectopic expression of wildtype Apaf-1 in an Apaf-1 deficient cell line should render cells sensitive to compound 2. As mentioned above, the ovarian cancer cell line SK-OV-3 is deficient in Apaf-1 activity and is resistant to compound 2. Apaf-i was cloned into pcDNA-3 and transiently transfected into SK-OV-3 cells using Fugene (Roche) according to the manufacturer's instructions. Transient transfection of Apaf-1 into SK-OV-3 cells rendered them sensitive to compound 2 cytotoxicity as compared to the vector control (FIG. 5D). […]

procaspase-3 processing = assay: Procaspase-3 processing in SK-OV-3 cell lysate with purified Apaf-1; assay type: biochemical; settings: 20 μM compound, 150 nM purified Apaf-1, 300 μM dATP
Procedure: as §3, §4

procaspases-9 and -3 = assay: Immunoblot for cleavage of procaspases-9 and -3 in S-100 cytoplasmic extracts; assay type: biochemical; settings: 20 μM compound, cyto c 1.25 μM
Procedure: FIG. 2 depicts activity of compounds 1-5 in cell lysates. (A) Compound activation is cyto c dependent. Cyto c was titrated into S-100 cytoplasmic extracts with vehicle alone or 20 μM compound and procaspase-3 processing was assayed by capture ELISA. (B) Compound activation is dose-dependent. Compounds or vehicle were titrated into S-100 cytoplasmic extracts at a cyto c concentration of 1.25 μM and procaspases-3 processing was assayed by capture ELISA. (C) Immunoblot assay of compound-induced caspase activation. Samples at the 20 μM compound concentration in (B) were separated on SDS-polyacrylamide gel and transferred to polyvinyl membrane. The same membrane was cut and probed with antibodies to caspase-9, the large subunit of active caspase-3, and P13 kinase as a loading control. (D) Compounds act upstream of caspase-9 activation. Cyto c was titrated into caspase-3 immunodepleted extracts with or without 20 μM compounds and assayed by immunoblot for procaspase-9 processing.
To directly visualize the processing of procaspases induced by the compounds, samples at the 20 μM compound concentration in FIG. 2B were assayed by immunoblot for the cleavage of procaspases-9 and -3.

Row | IC50 (Jurkat cells; Jurkhat, leukemia, p53 +) [µM] | IC50 (CCRF-CEM) [µM] | IC50 (BT-549) [µM] | IC50 (SK-OV-3; SK-OV-3, ovarian, Apaf-1 deficient) [µM] | SMILES | EC50 (Jurkat cells; Jurkat, 22 hr, MTT test, read-out: EC50 cell killing) [µM] | IC50 [1] [µM] | IC50 [2] [µM] | effect on cells (SK-OV-3; SK-OV-3, deficient in Apaf-1 activity) | inhibition of cell growth (cytostatic effect) ([3]; 10 μM, in 40 out of 48 cell lines tested, 6 days) | reduction of cell numbers from the initial levels (cytotoxic effect) ([3]; 10 μM, in eight cell lines) | reduction of cell numbers from the initial levels (cytotoxic effect) ([3]; 10 μM, in four cell lines) | cytotoxicity ([3]; 100 μM, virtually all cell lines) [%] | sensitivity relative to the mean response of the panel ([3]; CCRF-CEM, MOLT-4, LOX IMVI, SN 12C, SF-295) | overall activity in the cancer panel ([3]; among compounds 2-5) | cell killing after silencing of Apaf-1 [4] | viability of cells exposed to compound (plateau) [5] | effect on cyto c activation curve of procaspase-3 processing (procaspase-3 processing) | processing of procaspases-9 and -3 (procaspases-9 and -3)
1 | 4 | 9 | 20 | > 50 | O=C1C(=O)N(Cc2ccc(Cl)c(Cl)c2)c2ccccc21 [Compound 2] | ~5 | 50 | 43 | no effect | 50-100% | 50-100% | 10-50% | 100 | 5-10 fold | most active overall | resistance | 40-50% | shifted the activation curve to the left | 
2 |  |  |  |  | O=C(NCc1ccc(Cl)c(Cl)c1)OC1CCc2ccccc21 (stereo not drawn) [Compound 4] |  |  |  |  |  |  |  |  |  |  |  |  |  | limited processing
